Assays:
[1] = system: KM12 cells; experiment: In vitro cytotoxicity / cell growth inhibition, colon cancer; assay type: cell-based; conditions: Homo sapiens, 48 hr, read-out: log10 G150 (converted)
Experimental: (§1) The anti-proliferative activities of the aziridinylpolyamines obtained in Synthesis Examples 1-4 were assessed by determining log10 G150 values against human cancer cell lines using the screening strategy described by Boyd et al, Drug Devel. Res. 34:91-109 (1995).
(§2) More specifically, the compounds were tested at a minimum of five concentrations at 10-fold dilutions using a 48 hr continuous exposure protocol. Each cell line shown in Table 1 below was inoculated onto microtiter plates. After a pre-incubation period of 24-48 hr at 37° C., the test compounds were added, and the culture was incubated for an additional 48 hr at 37° C. Cell viability or cell growth end-point determinations were performed by fixation of the cells, followed by staining with sulforhodamine B (Monks et al, J. Natl. Cancer Inst., 83:757-766 (1991)).

[2] = system: HCT-15 cells; experiment: as above; assay type: cell-based; conditions: Homo sapiens; HCT-15, colon cancer, 48 hr; read-out: log10 G150 (converted)
Experimental: as §1, §2

[3] = system: SW-620 cells; experiment: as above; assay type: cell-based; conditions: Homo sapiens; SW-620, colon cancer, 48 hr; read-out: log10 G150 (converted)
Experimental: as §1, §2

[4] = system: COLO 205 cells; experiment: as above; assay type: cell-based; conditions: Homo sapiens; COLO 205, colon cancer, 48 hr; read-out: log10 G150 (converted)
Experimental: as §1, §2

[5] = system: HCC-2998 cells; experiment: as above; assay type: cell-based; conditions: Homo sapiens; HCC-2998, colon cancer, 48 hr; read-out: log10 G150 (converted)
Experimental: as §1, §2

[6] = system: HT29 cells; experiment: as above; assay type: cell-based; conditions: Homo sapiens, HT-29, 48 hr, read-out: log10 G150 (converted)
Experimental: as §1, §2

[7] = system: HCT-116 cells; experiment: as above; assay type: cell-based; conditions: Homo sapiens; HCT-116, colon cancer, 48 hr; read-out: log10 G150 (converted)
Experimental: as §1, §2

[8] = system: NCl-H322M cells; experiment: In vitro cytotoxicity / cell growth inhibition, non-small cell lung cancer; assay type: cell-based; conditions: Homo sapiens, 48 hr, read-out: log10 G150 (converted)
Experimental: as §1, §2

[9] = system: EKVX cells; experiment: as above; assay type: cell-based; conditions: Homo sapiens, 48 hr, read-out: log10 G150 (converted)
Experimental: as §1, §2

[10] = system: NCl-H23 cells; experiment: as above; assay type: cell-based; conditions: Homo sapiens, 48 hr, read-out: log10 G150 (converted)
Experimental: as §1, §2

[11] = system: HOP-92 cells; experiment: as above; assay type: cell-based; conditions: Homo sapiens; HOP-92, non-small cell lung cancer, 48 hr; read-out: log10 G150 (converted)
Experimental: as §1, §2

[12] = system: NCl-H226 cells; experiment: as above; assay type: cell-based; conditions: Homo sapiens, 48 hr, read-out: log10 G150 (converted)
Experimental: as §1, §2

[13] = system: NCl-H460 cells; experiment: as above; assay type: cell-based; conditions: Homo sapiens, 48 hr, read-out: log10 G150 (converted)
Experimental: as §1, §2

[14] = system: A549/ATCC cells; experiment: as above; assay type: cell-based; conditions: Homo sapiens, 48 hr, read-out: log10 G150 (converted)
Experimental: as §1, §2

[15] = system: NCl-H522 cells; experiment: as above; assay type: cell-based; conditions: Homo sapiens, 48 hr, read-out: log10 G150 (converted)
Experimental: as §1, §2

[16] = system: HOP-62 cells; experiment: as above; assay type: cell-based; conditions: Homo sapiens; HOP-62, non-small cell lung cancer, 48 hr; read-out: log10 G150 (converted)
Experimental: as §1, §2

[17] = system: K-562 cells; experiment: In vitro cytotoxicity / cell growth inhibition, leukemia; assay type: cell-based; conditions: Homo sapiens, K562; K-562, leukemia, 48 hr; read-out: log10 G150 (converted)
Experimental: as §1, §2

[18] = system: SR cells; experiment: as above; assay type: cell-based; conditions: Homo sapiens, 48 hr, read-out: log10 G150 (converted)
Experimental: as §1, §2

[19] = system: CCRF-CEN cells; experiment: as above; assay type: cell-based; conditions: Homo sapiens, 48 hr, read-out: log10 G150 (converted)
Experimental: as §1, §2

[20] = system: MOLT-4 cells; experiment: as above; assay type: cell-based; conditions: Homo sapiens; MOLT-4, leukemia, 48 hr; read-out: log10 G150 (converted)
Experimental: as §1, §2

[21] = system: RPMI-8226 cells; experiment: as above; assay type: cell-based; conditions: Homo sapiens; RPMI-8226, leukemia, 48 hr; read-out: log10 G150 (converted)
Experimental: as §1, §2

[22] = system: pBR322 DNA; assay type: biochemical; conditions: 37° C., 18 hr, pH 7.4
[23] = system: SNB-19 cells; experiment: In vitro cytotoxicity / cell growth inhibition, CNS cancer; assay type: cell-based; conditions: Homo sapiens; SNB-19, CNS cancer, 48 hr; read-out: log10 G150 (converted)
Experimental: as §1, §2

[24] = system: SF-539 cells; experiment: as above; assay type: cell-based; conditions: Homo sapiens; SF-539, CNS cancer, 48 hr; read-out: log10 G150 (converted)
Experimental: as §1, §2

[25] = system: SF-268 cells; experiment: as above; assay type: cell-based; conditions: Homo sapiens; SF-268, CNS cancer, 48 hr; read-out: log10 G150 (converted)
Experimental: as §1, §2

[26] = system: U251 cells; experiment: as above; assay type: cell-based; conditions: Homo sapiens, U-251, 48 hr, read-out: log10 G150 (converted)
Experimental: as §1, §2

[27] = system: SF-295 cells; experiment: as above; assay type: cell-based; conditions: Homo sapiens; SF-295, CNS cancer, 48 hr; read-out: log10 G150 (converted)
Experimental: as §1, §2

[28] = system: SNB-75 cells; experiment: as above; assay type: cell-based; conditions: Homo sapiens; SNB-75, CNS cancer, 48 hr; read-out: log10 G150 (converted)
Experimental: as §1, §2

C(CCNCCCN1CC1)CNCCCN1CC1 [Synthesis Example 1, 1,12-Diaziridinyl-4,9-diazadodecane]
GI50 [1]: 15500 nM
GI50 [2]: 11500 nM
GI50 [3]: 2630 nM
GI50 [4]: 407 nM
GI50 [5]: 1820 nM
GI50 [6]: 3630 nM
GI50 [7]: 1260 nM
GI50 [8]: 4570 nM
GI50 [9]: 3470 nM
GI50 [10]: 263 nM
GI50 [11]: 219 nM
GI50 [12]: 724 nM
GI50 [13]: 363 nM
GI50 [14]: 891 nM
GI50 [15]: 427 nM
GI50 [16]: 58.9 nM
GI50 [17]: 4370 nM
GI50 [18]: 18.2 nM
GI50 [19]: 63.1 nM
GI50 [20]: 44.7 nM
GI50 [21]: 5130 nM
concentration at which DNA was found to be cross-linked [22]: ≤ 0.1 µM
GI50 [23]: 1120 nM
GI50 [24]: 37.2 nM
GI50 [25]: 148 nM
GI50 [26]: 417 nM
GI50 [27]: 155 nM
GI50 [28]: 27.5 nM

— US5612329A (priority 1995, dated 1997)
